Where two headings read alike, the source gives them in different places.
Assays:
MCF-10A [1] = tested on: MCF-10A; design: method as in earlier work; conditions: 72 h, dark; footnote b: values taken from ref (number not given); cited from earlier work
CT-DNA = assay: Interaction with CT-DNA by circular dichroism; assay type: binding, calf; conditions: 50 μM CT-DNA, 50 μM cisplatin, 37 °C, 24 h in the dark (positive control)
Procedure: Platinum(II) complexes, such as cisplatin, presenting exchangeable ligands are well known to interact with puric bases of DNA, leading to the formation of intra- and interstrand cross-links and in turn to transcription inhibition, cell cycle arrest, and ultimately cell death. Based on the reactivity in the cell culture medium, the interaction of complexes 1–4 and cisplatin with CT-DNA was investigated by circular dichroism (CD) spectroscopy after incubation at 37 °C for 24 h in the dark or for 4 h incubation and 5 min irradiation at 450 nm, followed by 20 h incubation, following a reported protocol. The CD spectrum of CT-DNA presents a positive peak at 280 nm, assigned to base stacking, and a negative peak at 245 nm, assigned to helicity.
A stock solution of calf thymus DNA (CT-DNA) was prepared in 5 mM TRIS·HCl, and 50 mM NaCl (pH 7.4). The concentration of nucleotides was assayed at 260 nm using ε = 6600 M^–1.cm^–1 (c = 3.38 mM). […] Circular dichroism spectra (238–340 nm, 5 scans) were recorded in a 1 cm path length cell on a J-815 CD spectrometer (JASCO) at 20 °C with 0.1 nm data pitch, 50 nm/min scan speed, and 1 nm bandwidth.

A549 [2] = tested on: A549; design: method as in earlier work; conditions: 72 h, dark; footnote b: values taken from ref (number not given); cited from earlier work
MDA-MB-231 [3] = tested on: MDA-MB-231; design: method as in earlier work; conditions: 72 h, dark; footnote b: values taken from ref (number not given); cited from earlier work
Solubility (statements) = assay type: physicochemical
MDA-MB-231 [4] = assay: MTT cell viability assay on MDA-MB-231 cells, dark and 450 nm irradiation; assay type: cell-based, human; conditions: for EC50: MTT
Text: (§1) (C∧N) cyclometalated Pt(II) complexes have been previously reported to have strong antiproliferative activities when associated with phenanthroline-based, diphosphine, acyclic diamino carbenes, or picolinate ligands. In particular, (Me2N-pbt)-cyclometalated platinum complexes have been previously reported by some of us to have antiproliferative properties in the micromolar range on a panel of cancer cell lines, prompting us to investigate the anticancer properties of complexes 1–4 in dark conditions and, considering their high quantum yield (ϕΔ) of ^1O2 generation, under irradiation conditions. Due to the poor solubility of the complexes in an aqueous environment, complexes 1–4 were first dissolved in DMSO and diluted in the culture media to reach a final concentration of 1% DMSO when incubated with the cells. All complexes were screened against the so-called “triple-negative” breast cancer cell line MDA-MB-231, lung adenocarcinoma cell line A549, and the noncancerous breast cell line MCF-10A for 72 h in dark conditions and under 5 min irradiation at 450 nm (see Experimental Section for details). The irradiation time was kept short to prevent light-induced toxicity of the energetic wavelength observed at longer irradiation times (data not shown). The measurement of the effective concentration at 50% (EC50) was carried out using the classical MTT assay, and the data are provided in Table .
(§2) In dark conditions, we could notice a strong influence of substituents on the picolinate ligands. […] This can be correlated with its poor stability in the culture medium mentioned above, which might reduce its cellular uptake. […] However, in dark conditions, no particular selectivity for cancer cells could be observed with similar activity measured against the noncancerous cell line MCF-10A. For the “light” experiments, the cells were preincubated with the complexes for 4 h in the dark, irradiated at 450 nm for 5 min, and then put back in the dark until 72 h. The photoactivity index (PI) values, defined as the ratio between the EC50 in dark conditions and the EC50 after irradiation for each cell line, are shown in Figure .
(§3) The human lung adenocarcinoma cell line A549 and human breast cancer cell line MDA-MB-231 were cultivated in DMEM (Dulbecco’s modified Eagle’s medium) containing GlutaMax I supplemented with 10% FBS at 37 °C in a humidified atmosphere and 5% CO2. The noncancerous cell line MCF-10A was maintained in DMEM:F12 (1:1) cell culture media, 5% heat-inactivated horse serum, supplemented with HEPES (20 mM), L-glutamine (2 mM), epidermal growth factor (20 ng/mL), hydrocortisone (500 ng/mL), cholera toxin (100 ng/mL), and insulin (10 μg/mL). Cell viability was evaluated by using a colorimetric method based on the tetrazolium salt MTT [3-(4,5-dimethylthiazol-2-yl)-2,5-diphenyltetrazolium bromide], which is reduced by viable cells to yield purple formazan crystals. Cells were seeded in 96-well plates at a density of 40000 cells/mL (100 μL per well). Stock solutions were prepared in DMSO for complexes 1–4 and in water for cisplatin. […] For dark experiments, after overnight attachment, a dilution series of the compounds was added to the medium, and the cells were incubated for a further 72 h. For the irradiated experiments, after overnight attachment, a dilution series of the compounds was added to the medium, and the cells were preincubated for 4 h. The cells were then irradiated at 450 nm for 5 min with a Kessil Lamp (power: 3 mW/cm^2, 1.13 × 10^–8 Einstein/s at 20 cm distance between the light source and 96-well plate) and the incubation was continued until 72 h. After 72 h, the medium was removed and the cells were incubated with MTT solution in PBS (10 μL of 5 mg/mL) for 2–3 h. The formed purple formazan crystals were dissolved in 100 μL of DMSO by thorough shaking, and the absorbance at 580 nm was read using a microplate reader (FLUOstar OPTIMA, BMG Labtech). Each test was performed with at least 3 replicates and repeated at least 3 times. […]

A549 [5] = assay: MTT cell viability assay on A549 cells, dark and 450 nm irradiation; assay type: cell-based, human; conditions: for EC50: MTT
Text: as §1, §2, §3

MCF-10A [6] = assay: MTT cell viability assay on noncancerous MCF-10A cells, dark and 450 nm irradiation; assay type: cell-based, human; conditions: for EC50: MTT
Text: as §1, §2, §3

[7] = Stability in serum-free DMEM containing 5% DMSO by UV–vis; assay type: physicochemical; conditions: DMEM with 5% DMSO, 25 μM, 37 °C; for stability in serum-free DMEM, UV–vis spectral changes, first 4 h: dark or with 5 min irradiation at 450 nm
Text: The stability of complexes 1–4 was then investigated in more biologically relevant media by UV–visible spectroscopy. First, the stability of the complexes was studied in phosphate-buffered saline (PBS) containing 5% DMSO (Figure S30). […] Only a decrease in the intensity of all bands was observed, which could be attributed to partial aggregation and/or precipitation. […] The stability of complexes 1–4 was next studied in serum-free DMEM cell culture containing 5% DMSO (Figure S31). […] This final species seemed to have spectral features similar to those observed for complex 4 (Figure S31A). […] The similarity of the spectral features of the transformed species in all cases seemed to point to the formation of a common species upon incubation in DMEM, which we tentatively attribute to the decoordination of the picolinate ligands with a substituent-dependent kinetics; the COOH group favored the release of the picolinate ligand, while both NH2 and OH substituents seemed to slow down this process.
The UV–vis spectra of complexes 1–4 were recorded in PBS:DMSO (95/5) and serum-free DMEM:DMSO (95/5) at a concentration of 25 μM on a Cary 50 spectrophotometer (Varian).

HeLa = tested on: HeLa; design: method as in not given; conditions: previously reported by the authors, ref not given, cited from earlier work
A549 [8] = tested on: A549; design: method as in not given; conditions: previously reported by the authors, ref not given, cited from earlier work
[9] = Singlet oxygen generation, NIR emission at 1274 nm versus phenalenone; assay type: physicochemical; conditions: aerated acetonitrile 5 × 10^–5 M, 298 K, excitation 365 nm, reference phenalenone
Procedure: In aerated DMSO solutions, complexes 1–3 display a fluorescence band only at ca 510 nm, attributed to ^1LL′CT/^1ILCT, due to easy quenching of the phosphorescence by oxygen. However, upon prolonged photoexcitation at 365 nm, a continuous enhancement of the phosphorescence band is observed. Simply irradiating with a hand UV–vis lamp, the initial blue-green emission gradually shifts to the orange enhanced emission. The phosphorescence increases its maximum intensity in ca 15 1, 8 2, or 12 min 3 (Figures and S23). […] This relatively rare behavior has been previously observed by us , and other groups, and is explained by the occurrence of a local sensitization caused by energy transfer from the low-energy triplet to ^3O2-producing singlet ^1O2, which is able to selectively react with the solvent creating a free oxygen microenvironment that switches-on a phosphorescence band due to ^3ILCT at 580 nm. The strong sensitivity of the phosphorescence emission in these complexes encourages us to determine their efficiency as ^1O2 sensitizers. The singlet oxygen generation of complexes 1–3 was examined in acetonitrile solution (5 × 10^–5 M) using a near-infrared detector upon excitation at 365 nm, detecting the characteristic emission profile of ^1O2 at λem ∼ 1274 nm (Figure ).

[10] = 4 h preincubation, 5 min irradiation at 450 nm, then dark until 72 h, read-out: EC50 MDA-MB-231 light
[11] = 72 h incubation at 37 °C, dark, read-out: EC50 MDA-MB-231 dark
[12] = 4 h preincubation, 5 min irradiation at 450 nm, then dark until 72 h, read-out: EC50 A549 light
[13] = 72 h incubation at 37 °C, dark, read-out: EC50 A549 dark
[14] = 4 h preincubation, 5 min irradiation at 450 nm, then dark until 72 h, read-out: EC50 MCF-10A light
[15] = 72 h incubation at 37 °C, dark, read-out: EC50 MCF-10A dark

Molecule	EC50 (MDA-MB-231 [4]; [10])	EC50 (MDA-MB-231 [4]; [11])	EC50 (A549 [5]; [12])	EC50 (A549 [5]; [13])	EC50 (MCF-10A [6]; [14])	EC50 (MCF-10A [6]; [15])	stability in serum-free DMEM, UV–vis spectral changes, first 4 h [7]	quantum yield (ϕΔ) of 1O2 [9]	stability in serum-free DMEM, UV–vis spectral changes, 24 h [7]	also measured
N.N.[Cl][Pt][Cl] [Cisplatin]	–	–	–	–	–	–	–	–	–	EC50 (MCF-10A [1]): 2900 ± 800 nM; modification of the CD spectrum of CT-DNA (CT-DNA): decrease of the band at 245 nm and an increase of the band at 280 nm; EC50 (A549 [2]): 1700 ± 500 nM; EC50 (MDA-MB-231 [3]): 20400 ± 3400 nM
[Pt(Me2N-pbt)(4-COOH-pic-κN,O)] [Complex 4]	15900 ± 3600 nM	42400 ± 4200 nM	> 100000 nM	> 100000 nM	15000 ± 900 nM	21700 ± 4200 nM	quantitative transformation	–	–	solubility (Solubility (statements)): only soluble in DMSO; photoactivity index (PI), EC50 dark / EC50 after irradiation, MDA-MB-231 (MDA-MB-231 [4]; 5 min irradiation at 450 nm): very limited phototoxicity; photoactivity index (PI), EC50 dark / EC50 after irradiation, A549 (A549 [5]; 5 min irradiation at 450 nm): very limited phototoxicity; photoactivity index (PI), EC50 dark / EC50 after irradiation, MCF-10A (MCF-10A [6]; 5 min irradiation at 450 nm): very limited phototoxicity
[Pt(Me2N-pbt)(o-dpb)]	–	–	–	–	–	–	–	–	–	IC50 (HeLa; 1 min of irradiation (396 nm), read-out: IC50 HeLa upon irradiation): 1500 nM; activity in the dark, HeLa (HeLa; dark): inactive; IC50 (A549 [8]; 1 min of irradiation (396 nm), read-out: IC50 A549 upon irradiation): 830 nM; activity in the dark, A549 (A549 [8]; dark): inactive
[Pt(Me2N-pbt)(pic-κN,O)] [Complex 1]	170 ± 50 nM	500 ± 60 nM	570 ± 30 nM	1500 ± 100 nM	300 ± 100 nM	470 ± 50 nM	first spectral modification	13.6%	further evolved	–
[Pt(Me2N-pbt)(3-NH2-pic-κN,O)] [Complex 2]	260 ± 50 nM	800 ± 200 nM	1000 ± 200 nM	1900 ± 400 nM	400 ± 100 nM	700 ± 200 nM	no spectral changes	17.4%	spectral features of both complexes changed	–
